Experimental findings from patent publication US5194433A, “Antibiotic C-3 catechol-substituted cephalosporin compounds, compositions and method of use thereof” (Bristol-Myers Squibb Company, priority 1990, dated 1993) are described below.

Values after ≈ are worked out from the molar mass of the structure shown. Where two headings read alike, the source gives them in different places. A value given as a limit tells only on which side of the number the result lay.

Common to all, as to test: in vitro antibacterial activity, two-fold serial agar dilution in Mueller-Hinton agar (MIC)
Type in all cases: cell-based
Background: Agar dilution tests growth on a series of plates holding different concentrations.

For assay [1], the system named is Penicillin (PC)sensitive S. aureus. Conditions: Staphylococcus aureus, Gp-Ia, 5 strains, read-out: Geometric mean of MIC. The text has this:
(§1) Table 3 lists the in vitro antibacterial activity of several representative compounds of the invention. The activity has been evaluated in terms of minimum inhibitory concentrations (MIC's) by a standard two-fold serial agar dilution method in Mueller-Hinton agar. The values are in geometric means of MIC's against the strains tested in each group. The activity of the known compound ceftazidime is also given for comparison.
GpIa: Penicillin (PC)sensitive S. aureus

The subject of assay [2] is PCresistant S. aureus. Conditions: Staphylococcus aureus; Gp-Ib, 5 strains, penicillin-resistant S. aureus; read-out: Geometric mean of MIC.
Source text: as §1
GpIb: PCresistant S. aureus

Assay [3] has as its system Cephalothin (CET)sensitive E. coli (2 strains), Kl. pneumoniae (1) and Pr. mirabilis (2). Conditions: Gn-Ia, 5 strains, read-out: Geometric mean of MIC.
Source text: as §1
GnIa: Cephalothin (CET)sensitive E. coli (2 strains), Kl. pneumoniae (1)

Assay [4] deals with CETsensitive E. coli (3) and Kl. pneumoniae (2). Conditions: Escherichia coli, read-out: Geometric mean of MIC.
Source text: as §1
GnIb: CETsensitive E. coli (3) and Kl. pneumoniae (2)

Assay [5] concerns M. morganii (1), Ent. cloacae (2) and Ser. marcesens (2). Conditions: Morganella morganii, read-out: Geometric mean of MIC.
Source text: as §1
GnII: M. morganii (1), Ent. cloacae (2) and Ser. marcesens (2)

For assay [6], the system named is Ceftazidimesensitive P. aeruginosa. Conditions: Pseudomonas aeruginosa, read-out: Geometric mean of MIC.
Source text: as §1
Pa (S): Ceftazidimesensitive P. aeruginosa

The test system of assay [7] is Ceftazidimemoderately resistant P. aeruginosa. Conditions: Pseudomonas aeruginosa, read-out: Geometric mean of MIC.
Source text: as §1
Pa (MR): Ceftazidimemoderately resistant P. aeruginosa

Assay [8] has as its system Ceftazidimehighly resistant P. aeruginosa. Conditions: Pseudomonas aeruginosa; Pa (HR), 8 strains, ceftazidime highly resistant; read-out: Geometric mean of MIC.
Source text: as §1
Pa (HR): Ceftazidimehighly resistant P. aeruginosa

The test system of assay [9] is P. cepacia. Conditions: Burkholderia cepacia; Pc, 2 strains; read-out: Geometric mean of MIC.
Source text: as §1

Assay [10] has as its system X. moltophilia. Conditions: read-out: Geometric mean of MIC.
Source text: as §1

Where [11] appears, read: Pa (S), 10 strains, ceftazidime-sensitive.
Where [12] appears, read: Pa (MR), 8 strains, ceftazidime moderately resistant.

The term MIC denotes the lowest concentration that inhibits growth of the organism. With `CC(C)(O/N=C(\C(=O)NC1C(=O)N2C(C(=O)O)=C(Cn3cnc4cc(O)c(O)cc43)CS[C@H]12)c1csc(N)n1)C(=O)O` (some centres unmarked) [Ia, 7-[(Z)-2-(2-Aminothiazol-4-yl)-2-(1-carboxy-1-methylethoxyimino)acetamido]-3-(5,6-dihydroxybenzimidazol-1-yl)methyl-3-cephem-4-carboxylic acid], the MIC in assay [1] is 50 µg/mL (≈ 81 µM); in [2], 50 µg/mL (≈ 81 µM); in [3], 0.61 µg/mL (≈ 0.988 µM); in assay [4] it was 0.8 µg/mL (≈ 1.3 µM); in [5] (Gn-II, 5 strains), 1.6 µg/mL (≈ 2.59 µM); in [6] (setting [11]) it was 0.14 µg/mL (≈ 0.227 µM). Also, the MIC in assay [7] amounted to 0.47 µg/mL (≈ 0.761 µM); in assay [8], 0.37 µg/mL (≈ 0.599 µM); in assay [9] it was 12.5 µg/mL (≈ 20.2 µM); in [10] (Xm, 4 strains), 3.1 µg/mL (≈ 5.02 µM).
Regarding `CC(C)(O/N=C(\C(=O)NC1C(=O)N2C(C(=O)O)=C(Cn3ccc4ccc(O)c(=O)c-4c3)CS[C@H]12)c1csc(N)n1)C(=O)O` (some centres unmarked) [Ib, 7-[(Z)-2-(2-Aminothiazol-4-yl)-2-(1-carboxy-1-methylethoxyimino)acetamido]-3-(2,8-dihydro-7-hydroxy-8-oxo-isoquinolin-2-yl)methyl-3-cephem-4-carboxylic acid], the MIC in assay [1] was 100 µg/mL (≈ 159 µM); in [2], more than 100 µg/mL; in assay [3], 0.6 µg/mL (≈ 0.954 µM); in [4], 0.8 µg/mL (≈ 1.27 µM); in [5] (Gn-II, 5 strains) it was 2.4 µg/mL (≈ 3.82 µM); in assay [6], 1.2 µg/mL (≈ 1.91 µM). For the same compound, the MIC in assay [7] (setting [12]) turned out to be 2.9 µg/mL (≈ 4.61 µM); in assay [8] it was 2.6 µg/mL (≈ 4.14 µM); in assay [9] it was 8.9 µg/mL (≈ 14.2 µM); in assay [10] (Xm, 4 strains), 12.5 µg/mL (≈ 19.9 µM).
As to `CC(C)(O/N=C(\C(=O)NC1C(=O)N2C(C(=O)O)=C(Cn3cc4cc(O)c(=O)cc-4cn3)CS[C@H]12)c1csc(N)n1)C(=O)O` (some centres unmarked) [Ic, 7-[(Z)-2-(2-Aminothiazol-4-yl)-2-(1-carboxy-1methylethoxyimino)acetamido]-3-(2,6-dihydro-7-hydroxy-6-oxophthalazin-2-yl)methyl-3-cephem-4-carboxylic acid], the MIC in [1] came out at 25 µg/mL (≈ 39.7 µM); in assay [2], 33 µg/mL (≈ 52.4 µM); in [3], 0.11 µg/mL (≈ 0.175 µM); in [4], 0.033 µg/mL (≈ 0.0524 µM); in assay [5] (Gn-II, 5 strains) it was 0.4 µg/mL (≈ 0.635 µM); in assay [6] (setting [11]), 0.033 µg/mL (≈ 0.0524 µM). The MIC in [7] (setting [12]) is 0.37 µg/mL (≈ 0.588 µM); in assay [8], 0.73 µg/mL (≈ 1.16 µM); in [9], 0.57 µg/mL (≈ 0.905 µM); in [10] (Xm, 4 strains), 6.3 µg/mL (≈ 10 µM).
For `C[n+]1cn(CC2=C(C(=O)[O-])N3C(=O)C(NC(=O)C(=NOC(C)(C)C(=O)O)c4csc(N)n4)C3SC2)c2cc(O)c(O)cc21` (centres unmarked) [Id, 7-[(Z)-2-(2-Aminothiazol-4-yl)-2-(1-carboxy-1-methylethoxyimino)acetamido]-3-(5,6-dihydroxy-3-methylbenzimidazol-3-io-1-yl)methyl-3-cephem-4-carboxylate], the MIC in [1] came to 25 µg/mL (≈ 39.6 µM); in assay [2] it was 33 µg/mL (≈ 52.2 µM); in assay [3] it was 0.044 µg/mL (≈ 0.0697 µM); in assay [4], 0.15 µg/mL (≈ 0.237 µM); in [5], 0.15 µg/mL (≈ 0.237 µM); in assay [6] (setting [11]), 0.057 µg/mL (≈ 0.0902 µM). The MIC in assay [7] (setting [12]) amounted to 0.31 µg/mL (≈ 0.491 µM); in assay [8], 0.18 µg/mL (≈ 0.285 µM); in assay [9], 3.2 µg/mL (≈ 5.07 µM); in [10] (Xm, 4 strains) it was 0.8 µg/mL (≈ 1.27 µM).
Consider `CC(C)(O/N=C(\C(=O)N[C@@H]1C(=O)N2C(C(=O)[O-])=C(C[n+]3ccccc3)CS[C@H]12)c1csc(N)n1)C(=O)O` [ceftazidime, reference compound], for which the MIC came out at 6.3 µg/mL (≈ 11.5 µM) in [1]; 12.5 µg/mL (≈ 22.9 µM) in [2]; 0.17 µg/mL (≈ 0.311 µM) in [3]; 0.3 µg/mL (≈ 0.549 µM) in assay [4]; 0.91 µg/mL (≈ 1.66 µM) in assay [5]; 1.2 µg/mL (≈ 2.2 µM) in [6]. Besides, the minimum inhibitory concentration (MIC) in assay [7] (setting [12]) is 14 µg/mL (≈ 25.6 µM); in [8] it was 65 µg/mL (≈ 119 µM); in assay [9] it was 18 µg/mL (≈ 32.9 µM); in [10], 71 µg/mL (≈ 130 µM).
